According to patent US10065972B2, “Bicyclic or tricyclic heterocyclic compound” (MITSUBISHI TANABE PHARMA CORPORATION, priority 2014, dated 2018):

target: human recombinant KAT-II (Homo sapiens (Human), UniProt Q8N5Z0); assay: KAT-II inhibitory test; format: biochemical; details: 3.0 μmol/L kynurenine, 37° C., 1 hr, pH 8.0; kynurenic acid quantified by HPLC
Procedure, shortened: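 E. coli-expressed His/MBP-tagged human KAT-II (2.0 ng/μL) incubated with 3.0 μmol/L kynurenine and 10 μmol/L pyridoxal phosphate in Tris-acetate pH 8.0, 1 hr at 37 °C. Reaction stopped with TCA. Kynurenic acid quantified by reversed-phase HPLC with fluorescence detection (ex 354/em 460 nm), duplicate at each concentration.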

Sequence of human recombinant KAT-II (Q8N5Z0 30-425): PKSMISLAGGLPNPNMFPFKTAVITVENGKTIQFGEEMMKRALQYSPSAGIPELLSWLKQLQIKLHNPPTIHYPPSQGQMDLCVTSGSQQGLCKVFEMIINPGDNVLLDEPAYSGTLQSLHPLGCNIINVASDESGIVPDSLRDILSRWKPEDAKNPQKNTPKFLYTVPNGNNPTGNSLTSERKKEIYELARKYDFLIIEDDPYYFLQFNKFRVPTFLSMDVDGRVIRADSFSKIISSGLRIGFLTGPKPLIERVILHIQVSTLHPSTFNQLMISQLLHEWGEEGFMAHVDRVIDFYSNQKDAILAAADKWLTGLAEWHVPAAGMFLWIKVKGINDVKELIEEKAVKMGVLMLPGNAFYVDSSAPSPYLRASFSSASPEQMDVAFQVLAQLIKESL

Structure (SMILES) | IC50
Cn1c(-c2ccccc2F)nc2sc(N3CCC[C@@H]3C(=O)NCc3ccccc3)nc2c1=O [Example 345, (R)-N-benzyl-1-[5-(2-fluorophenyl)-6-methyl-7-oxo-6,7-dihydro[1,3]thiazolo[5,4-d]pyrimidin-2-yl]pyrrolidine-2-carboxamide] | 8.7 nM
Cc1nc2sc([C@H]3CCCN3C(=O)Nc3csc4ncccc34)nn2c(=O)c1C [Example 175, (R)-2-(6,7-dimethyl-5-oxo-5H-[1,3,4]thiadiazolo[3,2-a]pyrimidin-2-yl)-N-(thieno[2,3-b]pyridin-3-yl)-pyrrolidine-1-carboxamide] | 3700 nM
O=C(NCc1ccccc1)[C@H]1CCCN1c1nc2c(=O)n(N3CCCC3)c(C(F)(F)F)nc2s1 [Example 252, (R)-N-benzyl-1-[7-oxo-6-(pyrrolidin-1-yl)-5-trifluoromethyl-6,7-dihydro-[1,3]thiazolo[5,4-d]pyrimidin-2-yl]pyrrolidine-2-carboxamide] | 19 nM
CCc1nn(CC)c(=O)c2nc(N3CCC[C@@H]3C(=O)NCc3ccccc3)sc12 [Example 612, (R)-N-benzyl-1-(5,7-diethyl-4-oxo-4,5-dihydro[1,3]thiazolo[4,5-d]pyridazin-2-yl)pyrrolidine-2-carboxamide] | 52 nM
Cc1cc(=O)n2nc(N3C[C@@H]4C[C@@H]4[C@@H]3C(=O)NCc3ccccc3)sc2n1 (racemic) [Example 661, (1SR,2RS,5RS)-N-benzyl-3-(7-methyl-5-oxo-5H-[1,3,4]thiadiazolo[3,2-a]pyrimidin-2-yl)-3-azabicyclo[3.1.0]hexane-2-carboxamide] | 3900 nM
Cn1c(N2CCCCC2)nc2sc(N3CCC[C@@H]3C(=O)NCc3ccccc3)nc2c1=O [Example 337, (R)-N-benzyl-1-[6-methyl-7-oxo-5-(piperidin-1-yl)-6,7-dihydro[1,3]thiazolo[5,4-d]pyrimidin-2-yl]pyrrolidine-2-carboxamide] | 4.4 nM
CC(C)c1cc(=O)n2nc(N3CCC[C@@H]3C(=O)NCc3ccccn3)sc2n1 [Example 653, (R)-1-[5-oxo-7-(propan-2-yl)-5H-[1,3,4]thiadiazolo[3,2-a]pyrimidin-2-yl]-N-[(pyridin-2-yl)methyl]pyrrolidine-2-carboxamide] | 190 nM
O=C(NC1(c2ccccc2)CC1)[C@H]1CCCN1c1nn2c(=O)c3ccccc3nc2s1 [Example 655, (R)-1-(5-oxo-5H-[1,3,4]thiadiazolo[2,3-b]quinazolin-2-yl)-N-(1-phenylcyclopropyl)pyrrolidine-2-carboxamide] | 29 nM
CCn1c(C(F)F)nc2sc(N3CCC[C@@H]3C(=O)NCc3cccs3)nc2c1=O [Example 309, (R)-1-(5-difluoromethyl-6-ethyl-7-oxo-6,7-dihydro-[1,3]thiazolo[5,4-d]pyrimidin-2-yl)-N-[(thiophen-2-yl)methyl]pyrrolidine-2-carboxamide] | 61 nM
O=C(NCc1ccccc1)[C@H]1CCCN1c1nc2c(=O)[nH]c(-c3c(F)cccc3F)nc2s1 [Example 583, (R)-N-benzyl-1-[5-(2,6-difluorophenyl)-7-oxo-6,7-dihydro[1,3]thiazolo[5,4-d]pyrimidin-2-yl]pyrrolidine-2-carboxamide] | 9 nM
O=C(NCc1ccccc1)[C@H]1CCCN1c1nc2c(=O)n3c(nc2s1)CN(CC(F)F)CC3 [Example 593, (R)-N-benzyl-1-[6-(2,2-difluoroethyl)-10-oxo-5,7,8,10-tetrahydro-6H-pyrazino[1,2-a][1,3]thiazolo[5,4-d]pyrimidin-2-yl]pyrrolidine-2-carboxamide] | 51 nM
Cn1c(-c2ccccc2)nc2sc(N3CC[C@@H](N)[C@@H]3C(=O)NCc3ccccc3)nc2c1=O [Example 611, (2R,3R)-3-amino-N-benzyl-1-(6-methyl-7-oxo-5-phenyl-6,7-dihydro[1,3]thiazolo[5,4-d]pyrimidin-2-yl)pyrrolidine-2-carboxamide] | 570 nM

Continued, values first:

IC50 | Structure (SMILES)
65 nM | O=C(Oc1ccccc1)N1CCC[C@@H]1c1nc2c(=O)[nH]c(OCC(F)(F)F)nc2s1 [Example 105, (R)-2-[7-oxo-5-(2,2,2-trifluoroethoxy)-6,7-dihydro[1,3]thiazolo[5,4-d]pyrimidin-2-yl]pyrrolidine-1-carboxylic acid phenyl ester]
14 nM | CC1(c2nc3sc([C@H]4CCCN4C(=O)Oc4ccccc4)nc3c(=O)[nH]2)COC1 [Example 116, (R)-2-[5-(3-methyloxetan-3-yl)-7-oxo-6,7-dihydro[1,3]thiazolo[5,4-d]pyrimidin-2-yl]pyrrolidine-1-carboxylic acid phenyl ester]
77 nM | CC(C)c1cc(=O)n2nc([C@H]3CCCN3C(=O)Oc3ccc(F)cc3)sc2n1 [Example 140, (R)-2-[5-oxo-7-(propan-2-yl)-5H-[1,3,4]thiadiazolo[3,2-a]pyrimidin-2-yl]pyrrolidine-1-carboxylic acid 4-fluorophenyl ester]
23 nM | CC(C)c1nc2sc([C@H]3CCCN3C(=O)Oc3ccccc3)nc2c(=O)n1C [Example 135, (R)-2-[6-methyl-7-oxo-5-(propan-2-yl)-6,7-dihydro[1,3]thiazolo[5,4-d]pyrimidin-2-yl]pyrrolidine-1-carboxylic acid phenyl ester]
84 nM | O=C(Oc1ccccc1)N1CCC[C@@H]1c1nc2c(=O)[nH]c(C3CCC(F)(F)CC3)nc2s1 [Example 74, (R)-2-[5-(4,4-difluorocyclohexyl)-7-oxo-6,7-dihydro[1,3]thiazolo[5,4-d]pyrimidin-2-yl]pyrrolidine-1-carboxylic acid phenyl ester]
31 nM | CN1CCn2c1nc1sc(N3CCC[C@@H]3C(=O)NCc3ccccc3)nc1c2=O [Example 602, (R)-N-benzyl-1-(5-methyl-9-oxo-5,6,7,9-tetrahydroimidazo[1,2-a][1,3]thiazolo[5,4-d]pyrimidin-2-yl)pyrrolidine-2-carboxamide]
470 nM | CC(C)c1cc(=O)n2nc([C@H]3CCCN3C(=O)NCc3ccccc3)sc2n1 [Example 157, (R)-N-benzyl-2-[5-oxo-7-(propan-2-yl)-5H-[1,3,4]thiadiazolo[3,2-a]pyrimidin-2-yl]pyrrolidine-1-carboxamide]
28 nM | COC1CN(c2nc3sc(N4CCC[C@@H]4C(=O)COc4ccccc4)nc3c(=O)n2C)C1 [Example 578, 5-(3-methoxyazetidin-1-yl)-6-methyl-2-[(R)-2-(2-phenoxyacetyl)pyrrolidin-1-yl][1,3]thiazolo[5,4-d]pyrimidin-7(6H)-one]
29 nM | CCc1nc2sc([C@H]3CCCN3C(=O)Oc3ccccc3)nc2c(=O)[nH]1 [Example 114, (R)-2-(5-ethyl-7-oxo-6,7-dihydro[1,3]thiazolo[5,4-d]pyrimidin-2-yl)pyrrolidine-1-carboxylic acid phenyl ester]
69 nM | O=C(Oc1ccccc1)N1CCC[C@@H]1c1nc2c(=O)[nH]c(-c3ccccc3F)cc2s1 [Example 137, (R)-2-[6-(2-fluorophenyl)-4-oxo-4,5-dihydro[1,3]thiazolo[4,5-c]pyridin-2-yl]pyrrolidine-1-carboxylic acid phenyl ester]
43 nM | Cc1noc(-c2nc3sc([C@H]4CCCN4C(=O)Oc4ccccc4)nc3c(=O)n2C)n1 [Example 19, (R)-2-[6-methyl-5-(3-methyl-[1,2,4]oxadiazol-5-yl)-7-oxo-6,7-dihydro[1,3]thiazolo[5,4-d]pyrimidin-2-yl]pyrrolidine-1-carboxylic acid phenyl ester]
180 nM | CCn1c(C(F)F)nc2sc(N3CCC[C@@H]3C(=O)N[C@H](COC)c3ccccc3)nc2c1=O [Example 300, (R)-1-(5-difluoromethyl-6-ethyl-7-oxo-6,7-dihydro-[1,3]thiazolo[5,4-d]pyrimidin-2-yl)-N-((S)-2-methoxy-1-phenylethyl)pyrrolidine-2-carboxamide]
22 nM | C[C@@H](NC(=O)[C@H]1CCCN1c1nc2c(=O)n(C)c(C(C)(F)F)nc2s1)c1ccccc1 [Example 267, (R)-1-[5-(1,1-difluoroethyl)-6-methyl-7-oxo-6,7-dihydro[1,3]thiazolo[5,4-d]pyrimidin-2-yl]-N-((R)-1-phenylethyl)pyrrolidine-2-carboxamide]
14 nM | C[C@H](c1nc2sc(N3CCC[C@@H]3C(=O)NCc3ccccc3)nc2c(=O)n1C)N(C)C [Example 376, (R)-N-benzyl-1-{5-[(R)-1-(N′,N′-dimethylamino)ethyl]-6-methyl-7-oxo-6,7-dihydro[1,3]thiazolo[5,4-d]pyrimidin-2-yl}pyrrolidine-2-carboxamide]
410 nM | CC(C)c1cc(=O)n2nc([C@H]3CCCN3C(=O)N[C@@H]3CCc4ccccc43)sc2n1 [Example 168, (R)-N-((R)-indan-1-yl)-2-[5-oxo-7-(propan-2-yl)-5H-[1,3,4]thiadiazolo[3,2-a]pyrimidin-2-yl]pyrrolidine-1-carboxamide]
460 nM | CCn1c(C(F)F)nc2sc(N3CCC[C@@H]3C(=O)N[C@@H](c3ccccc3)C3CC3)nc2c1=O [Example 299, (R)-N-[(R)-cyclopropyl(phenyl)methyl]-1-(5-difluoromethyl-6-ethyl-7-oxo-6,7-dihydro-[1,3]thiazolo[5,4-d]pyrimidin-2-yl)pyrrolidine-2-carboxamide]
48 nM | CC(C)c1nc2sc([C@H]3CCCN3C(=O)Oc3ccccc3)nn2c(=O)c1Cl [Example 153, (R)-2-[6-chloro-5-oxo-7-(propan-2-yl)-5H-[1,3,4]thiadiazolo[3,2-a]pyrimidin-2-yl]pyrrolidine-1-carboxylic acid phenyl ester]
18 nM | Cc1cccc(OC(=O)N2CCC[C@@H]2c2nc3c(=O)n(C)c(C4CCOCC4)nc3s2)c1 [Example 36, (R)-2-[6-methyl-7-oxo-5-(tetrahydro-2H-pyran-4-yl)-6,7-dihydro[1,3]thiazolo[5,4-d]pyrimidin-2-yl]pyrrolidine-1-carboxylic acid 3-methylphenyl ester]
